Assay results from PubChem BioAssay AID1383 (University of Pittsburgh Molecular Library Screening Center, 2008).
Active and inactive are the calls of the source. How the calls were made is not given here.

Biological target: Serine/threonine-protein kinase PLK1 (Homo sapiens) (UniProt P53350)
Experiment: activity against human Plk1 kinase – biochemical, selectivity assay for PKD inhibitor project, dose response (AID 1383)
Conditions: counterscreen

Chain of Serine/threonine-protein kinase PLK1 (Homo sapiens) (P53350 whole entry, looked up): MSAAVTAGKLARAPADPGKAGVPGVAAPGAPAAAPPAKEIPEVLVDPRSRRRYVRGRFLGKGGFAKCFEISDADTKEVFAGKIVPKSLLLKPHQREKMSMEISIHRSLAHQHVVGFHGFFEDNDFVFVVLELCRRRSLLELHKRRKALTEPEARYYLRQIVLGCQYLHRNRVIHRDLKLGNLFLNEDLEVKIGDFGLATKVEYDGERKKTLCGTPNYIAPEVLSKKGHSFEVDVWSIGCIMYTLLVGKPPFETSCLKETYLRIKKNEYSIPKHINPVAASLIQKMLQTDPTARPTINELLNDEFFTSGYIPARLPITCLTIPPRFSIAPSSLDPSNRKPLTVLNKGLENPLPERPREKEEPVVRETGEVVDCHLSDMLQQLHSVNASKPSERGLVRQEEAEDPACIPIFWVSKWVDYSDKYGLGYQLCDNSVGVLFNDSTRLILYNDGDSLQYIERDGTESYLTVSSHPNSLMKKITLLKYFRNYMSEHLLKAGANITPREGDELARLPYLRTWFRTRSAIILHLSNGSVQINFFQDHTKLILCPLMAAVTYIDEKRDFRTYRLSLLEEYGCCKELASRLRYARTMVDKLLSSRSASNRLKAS

IC50: > 50 µM (inactive)
SMILES: Clc1cncc(Cl)c1N/N=C/c1ccncc1
